{"source": "patent US10080748B2", "about": "“Use of flap inhibitors to reduce neuroinflammation mediated injury in the central nervous system” (Bioscience Pharma Partners, LLC, priority 2014, dated 2018)", "key": {"human whole blood": {"test_system": "human whole blood", "assay": "Human whole blood bioassay of LTB4, 5-HETE and AA production", "assay_type": "cell-based", "text": "The results are for the effects of these two FLAP inhibitors on LTB4 production and 5-HETE production. It is known that indole-acetic acid FLAP inhibitors like MK-886, MK-591 display high plasma protein binding. Thus, the potencies of these FLAP inhibitors for blocking leukotrienes in vivo are about 100 fold higher than the affinity of the inhibitors for FLAP binding. The inventors developed a bioassay that closely predicts the in vivo potency of FLAP inhibitors using human whole blood. Briefly, whole blood is incubated with a calcium ionophore like […] or zymosan in the absence or presence of increasing concentrations of a FLAP inhibitor. After incubation at 37° C. for 30 minutes, the samples are centrifuged and the plasma supernatant is subjected to reverse phase liquid chromatography coupled to tandem mass spectrometry to quantify levels of LTB4, 5-HETE, and AA production. Drug IC50 values are determined by non-linear regression analysis (GraphPad Prism).). […] As FLAP inhibitors are poorly water soluble drugs, the inventors have shown that such hydrophobic drugs can be formulated in a carrier comprising one or more vegetable oils, such as olive oil, and phosphatidylserine that are found on the Generally Accepted as Safe (GRAS) list and that such drugs can then be rapidly delivered and targeted to the brain and upper spinal cord. Hanson L R, et al, Drug Delivery 19(3):149-54, 2012."}, "[1]": {"assay": "Brain and plasma levels 30 minutes after intranasal administration", "assay_type": "in vivo, rat", "conditions": "intranasal 60 micrograms/32 ul lipid carrier, 30 minutes post-dosing", "experimental": "For intranasal delivery and subsequent tissue collection, rats were anesthetized with 3.5% isoflurane and placed in a supine position on top of a heating pad. The quinoline-indole FLAP inhibitor MK-591, 60 micrograms (μg) formulated with a lipid carrier was administered using a P20 pipette. Specifically, 4 μl drops were formed at the pipette tip and lowered to alternating nostrils every two minutes until a total of eight 4 μl drops were administered. At 30 minutes after the start of intranasal delivery, blood was collected from the heart, and rats were transcardially perfused with 60 ml ice-cold 0.9% NaCl followed by 360 ml 4% paraformaldehyde at 15 ml/minute. Brain tissues were dissected into anatomical regions on ice, weighed, snap-frozen in liquid N2, and stored at −70° C. until analysis. The levels of MK-591 in tissues and plasma were measured by tandem mass spectroscopy.\nThe MK-591 was formulated in a lipid carrier solution as described above. […] The rats were briefly anesthetized with 3.5% isoflurane and intranasal MK-591 (60 micrograms/32 ul lipid carrier) was administered in eight 4 ul aliquots to the nasal mucosa alternating between each nostril. The amount of drug was determined with the goal of reaching 200 nM concentration of drug which corresponds to 100× the Kd value for binding to FLAP. At 30 minutes post-dosing, blood was collected from anesthetized animals using a heparanized needle and plasma was separated from blood by centrifugation. The animals were then perfused with saline, while still under anesthesia, to remove drug in the blood of the cerebrovasculature. After perfusion the animals were euthanized and brain regions were rapidly removed. Both plasma and brain tissue samples were frozen in liquid nitrogen followed by storage at −80° C. Drug levels in the peripheral plasma and parenchymal brain tissues were assessed using a validated tandem mass spectroscopy platform. Values are expressed in ng of MK-591/mg tissue. […] The concentration of MK-591 in the cortex was 200 nM, the target concentration."}, "[2]": {"assay": "Brain and plasma levels 30 minutes after intraperitoneal administration", "assay_type": "in vivo, rat", "conditions": "intraperitoneal 10 mg/kg in 20% DMSO/saline; 30 minutes post-dosing", "experimental": "The rats were injected intraperitoneally with MK-591 (10 mg/kg in 20% DMSO/saline solution). At 30 minutes post-dosing, blood was collected from anesthetized animals using a heparanized needle and plasma was separated from blood by centrifugation. The animals were then perfused with saline, while still under anesthesia, to remove drug in the blood of the cerebrovasculature. After perfusion the animals were euthanized and brain hemispheres were rapidly removed. Both plasma and brain tissue samples were frozen in liquid nitrogen followed by storage at −80° C. Drug levels in the peripheral plasma and brain were assessed using a validated tandem RP-LC/MS/MS platform. […] Using the conversion of 1 ml=1 gm. The total volume of blood was 2 ml (or […]). The total weight of the brain hemisphere (minus cerebellum) is […]. Values are expressed in ng of MK-591/mg tissue."}, "[3]": {"test_system": "mice subjected to CHI (mTBI model)", "assay": "GFAP and Iba-1 immunohistochemical staining, mouse closed head injury (CHI) model", "assay_type": "in vivo", "conditions": "5 mg/kg IP once daily for 6 days after CHI; 7 dpi"}, "[4]": {"conditions": "cited from earlier work"}, "[5]": {"conditions": "cited from earlier work", "remark": "listed apart in the source"}, "[6]": {"test_system": "Primary neurons cultured from newborn rats", "assay": "Apoptosis of primary neurons in vitro", "experimental": "Primary neurons cultured from newborn rats were incubated in the presence of increasing concentrations of LTC4 or LTD4 for 16 hours."}, "[7]": {"test_system": "leukotriene LTC4 production", "assay": "LTC4 levels in brain after rat fluid percussion injury (RP LC-MS/MS)", "assay_type": "in vivo", "conditions": "neutrophil depletion, 0.5 mg/kg IV four days prior to TBI; 1 hour after FPI", "experimental": "Craniotomy and lateral fluid percussion injury (FPI) were performed using a previously validated and published procedure. Farias S, et al. J. Neurotraum, 26, 1977-1986, 2009; Frey L. C. et al. J. Neurosci. Methods 177, 267-272, 2009. Throughout the specification animals subjected to this protocol are referred to as having a TBI since this treatment protocol is a TBI model. Briefly, rats were anesthetized with 3-5% isoflurane, isosol, VEDCO Inc., St. Joseph, Mo., via nose cone and mounted in a stereotaxic head frame. A 3 millimeter (mm) craniotomy was created and centered at 3 mm caudal to bregma and 3.5 mm left of the sagittal suture, keeping the exposed dura intact. One steel support screw was embedded in the skull on the contralateral side. A Luer-Lock hub with an inside diameter of 3.5 mm was centered over the craniotomy and bonded to the skull with cyanoacrylate adhesive and capped. Dental acrylic, Snap, Parka, Inc., Edgewood, N.J., was poured around the huh and screw. After the acrylic hardened antibiotic ointment was applied around the cap and the animals were returned to their cages. The next day, approximately 15-20 hours later, animals were anesthetized with isoflurane in an induction chamber, immediately connected to the FPI apparatus, and received a 20 millisecond (ms) pulse of pressurized sterile saline at 2.7 atmospheres (atm) of pressure to simulate a moderate severity impact on the intact dural surface through the craniotomy before awakening from anesthesia. […] All animals received a subcutaneous injection of the analgesic, buprenorphine, 0.05 milligram/kilogram (mg/kg) Buprenex, prior to craniotomy, and subsequent injections every 12 hours for two days. Moistened food pellets were provided after injury, and all animals were monitored daily for well-being and weight changes.\nTwo groups of four rats each were subjected to FPI as described above. Four days prior to the FPI, each animal was briefly anesthetized for less than 5 minutes with 3-3.5% isoflurane and administered either NaCl 0.9%, 2 ml/kg IV (vehicle) or vinblastine sulfate 0.5 mg/kg IV in an identical volume. Neutrophil depletion was verified by complete cell blood counts (CBC) in vinblastine treated animals 4 days after administration. Both groups were euthanized by decapitation and the brain lipids extracted 1 hour after FPI. The amounts of LTC4 formed, measured by RP LC-MS/MS and normalized per milligram of protein, were compared between groups using one-way analysis of variance and the Student-Newman-Keuls test for multiple comparisons.\nThe indole FLAP inhibitor MK-886 was prepared at a dose of 2.5 milligram/milliliter (mg/ml), dissolved in dimethyl sulfoxide (DMSO) and then diluted with 0.9% saline to 10% DMSO. The rats were briefly anesthetized with 3-3.5% isoflurane and either […] at a dose of 6 mg/kg or vehicle was administered intravenously (IV) by tail vein injection. All animals were allowed to wake before undergoing additional procedures.\nCortical and hippocampal regions from ipsilateral and contralateral hemispheres were collected in 4 ml of 80% methanol, homogenized with a Dounee homogenizer, and internal standards were added to the homogenates. Protein content was measured using bicinchoninic acid assay (BCA) for protein to normalize lipid levels to the amount of tissue. Samples were centrifuged and the supernatant was collected. Samples were diluted to a final methanol concentration of lower than 15% and then the lipids were extracted using a solid phase extraction cartridge, Strata C18-E, 100 mg/1 ml, Phenomenex, Torrence Calif. The eluate, 1 ml of methanol, was dried down and reconstituted in 70 microliters (μl) of High Performance Liquid Chromotography (HPLC) solvent A, which is 8.3 mM acetic acid buffered to pH 5.7 with NH4OH, plus […] of solvent B, which is acetonitrile/methanol, 65/35, v/v. […]"}}, "note": "Structures can show the parent of a compound that is named as a salt. Where two headings read alike, the source gives them in different places."}
{"smiles": "CC(C)(C)Sc1c(CC(C)(C)C(=O)O)n(Cc2ccc(Cl)cc2)c2ccc(OCc3ccc4ccccc4n3)cc12", "note": "[MK-591]", "values": [{"measurement": "potency compared with MK-886", "setting": "human whole blood", "value": "more potent"}, {"measurement": "AA production", "setting": "human whole blood; human whole blood, data not shown", "value": "neither of the FLAP inhibitors effected AA production"}, {"measurement": "brain localization (rank of regions by level)", "setting": "[1]", "value": "highest level of MK-591 was detected in the olfactory bulbs, followed by the hippocampus, and cortex"}, {"measurement": "levels of drug in plasma versus brain", "setting": "[1]", "value": "lower than the amount of drug reaching the brain"}, {"measurement": "concentration at 30 min", "setting": "[1]; rat, brain cortex, other: intranasal", "value": 200, "unit": "nM"}, {"measurement": "distribution between plasma and brain tissue", "setting": "[2]", "value": "most of the drug was in the plasma with much lower levels found in brain tissue"}, {"measurement": "GFAP staining in cerebral cortex, external capsule and dentate gyrus", "setting": "[3]", "value": "significantly blocked the increase"}, {"measurement": "Iba-1 staining in cerebral cortex, external capsule and dentate gyrus", "setting": "[3]", "value": "significantly blocked the increase"}, {"measurement": "plasma protein binding", "setting": "[4]", "value": "high"}, {"measurement": "t1/2 compared with MK-886", "setting": "[5]", "value": "longer"}]}
{"smiles": "CCCCC/C=C\\C\\C=C/C=C/C=C/[C@@H](SC[C@H](N)C(=O)NCC(=O)O)[C@@H](O)CCCC(=O)O", "note": "[LTD4, leukotriene D4]", "values": [{"measurement": "neuronal apoptosis", "setting": "[6]", "value": "induce neuronal apoptosis"}]}
{"smiles": "CC[C@]1(O)C[C@@H]2CN(CCc3c([nH]c4ccccc34)[C@@](C(=O)OC)(c3cc4c(cc3OC)N(C)[C@H]3[C@@](O)(C(=O)OC)[C@H](OC(C)=O)[C@]5(CC)C=CCN6CC[C@]43[C@@H]65)C2)C1", "note": "[vinblastine, vinblastine sulfate]", "values": [{"measurement": "leukotriene production in the ipsilateral hemisphere", "setting": "[7]", "value": "markedly reduced"}]}
{"smiles": "CCCCC/C=C\\C\\C=C/C=C/C=C/[C@@H](SC[C@H](NC(=O)CC[C@H](N)C(=O)O)C(=O)NCC(=O)O)[C@@H](O)CCCC(=O)O", "note": "[LTC4, leukotriene C4]", "values": [{"measurement": "neuronal apoptosis", "setting": "[6]; increasing concentrations, 16 hours, dose-dependent", "value": "induce neuronal apoptosis"}]}
